The target of test [1] is T1, IRAK4 (Homo sapiens, UniProt Q9NWZ3).
T1 construct: endogenous in cells; host or cells: Karpas299
T1 sequence (Q9NWZ3 1-460): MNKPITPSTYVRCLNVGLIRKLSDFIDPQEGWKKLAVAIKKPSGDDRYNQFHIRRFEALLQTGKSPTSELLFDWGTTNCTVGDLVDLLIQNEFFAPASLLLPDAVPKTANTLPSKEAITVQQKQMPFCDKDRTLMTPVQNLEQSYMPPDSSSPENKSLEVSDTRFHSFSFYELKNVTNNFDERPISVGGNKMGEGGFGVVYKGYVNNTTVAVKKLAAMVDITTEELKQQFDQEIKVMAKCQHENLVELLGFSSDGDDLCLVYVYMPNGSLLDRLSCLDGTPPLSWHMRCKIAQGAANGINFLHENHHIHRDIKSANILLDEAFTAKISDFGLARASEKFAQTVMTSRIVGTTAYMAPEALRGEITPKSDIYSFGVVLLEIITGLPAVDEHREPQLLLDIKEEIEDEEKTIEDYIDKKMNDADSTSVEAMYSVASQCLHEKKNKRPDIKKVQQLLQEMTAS
The test can be described thus: IRAK4 Degradation Assay with Human Serum (Karpas299, HTRF/TR-FRET). The class given is cell-based. As to conditions: Karpas-299 in human serum, 24 hrs treatment; for DC50: read-out: IRAK4 degradtion with human serum assay DC50; for Dmax: read-out: IRAK4 degradtion with human serum assay Dmax (%). Put shortly: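 Karpas299 cells in human AB serum (0.2 million/well) treated with serial compound dilutions for 24 h. After lysis, IRAK4 quantified by HTRF (overnight antibody incubation at room temperature, 665/620 nm read). Degradation percentage fitted to four-parameter curve to give DC50.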

The target in test [2] is T1, IRAK4. The test can be described thus: IRAK4 Degradation Assay (Karpas299, HTRF/TR-FRET). As to conditions: Karpas-299 cells; for Dmax: maximum percentage of degradation. The class given is cell-based. Put shortly:
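Karpas299 cells at 0.2 million per well were exposed to serially diluted compounds for 24 h or 5 h, then lysed. IRAK4 remaining in lysates was quantified by HTRF (665/620 nm) after overnight antibody incubation at room temperature. Percent degradation was fitted to a four-parameter curve to give IC50 (DC50).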

The mark [3] stands for this setting: 24 h treatment, read-out: IRAK4 in Karpas-299 (24 h) Dmax (%).
Where [4] appears, read: 24 h treatment, read-out: IRAK4 in Karpas-299 (24 h) DC50.

Our source for the DC50 and Dmax values is patent US20250195513A1, “DEGRADATION OF IRAK4 BY CONJUGATION OF IRAK4 INHIBITORS WITH E3 LIGASE LIGAND AND METHODS OF USE” (BeiGene, Ltd., priority 2022, published 2025).

In the case of `Cc1nc(C2CCC(=O)NC2=O)ccc1N1CCC(N2CCN(C[C@H]3CC[C@H](n4cc5cc(NC(=O)c6ccc7cc(C#N)cnn67)c(C(C)(C)O)cc5n4)CC3)CC2)CC1` (stereo partly drawn) [Example 420, 3-cyano-N-(2-((1r,4r)-4-((4-(1-(6-(2,6-dioxopiperidin-3-yl)-2-methylpyridin-3-yl)piperidin-4-yl)piperazin-1-yl)methyl)cyclohexyl)-6-(2-hydroxypropan-2-yl)-2H-indazol-5-yl)pyrrolo[1,2-b]pyridazine-7-carboxamide], the DC50 on IRAK4 [1] was determined as 17 nM; on IRAK4 [2] (setting [4]), 2.8 nM. Besides, the Dmax at IRAK4 [1] turned out to be 96%; on IRAK4 [2] (setting [3]) it was 97%.

As to `CC(C)(O)c1cc2nn([C@H]3CC[C@H](N4CCN(C[C@H]5C[C@@H](c6cc(F)c([C@H]7CCC(=O)NC7=O)c(F)c6)C5)CC4)CC3)cc2cc1NC(=O)c1ccc2cc(C#N)cnn12` [Example 383, 3-cyano-N-(2-((1R,4r)-4-(4-(((1S,3S)-3-(4-((R)-2,6-dioxopiperidin-3-yl)-3,5-difluorophenyl)cyclobutyl)methyl)piperazin-1-yl)cyclohexyl)-6-(2-hydroxypropan-2-yl)-2H-indazol-5-yl)pyrrolo[1,2-b]pyridazine-7-carboxamide], the DC50 amounted to 5.8 nM at IRAK4 [1] and 1.6 nM on IRAK4 [2] (setting [4]). Moreover, the results for the Dmax at IRAK4 [1] and at IRAK4 [2] (setting [3]) were 93% and 94%, respectively.

As to `COC[C@@H]1CN(C2CN(c3cc(F)c([C@H]4CCC(=O)NC4=O)c(F)c3)C2)CCN1[C@H]1CC[C@H](n2cc3cc(NC(=O)c4ccc5cc(C#N)cnn45)c(C(C)(C)O)cc3n2)CC1` [Example 327, 3-cyano-N-(2-((1S,4r)-4-((S)-4-(1-(4-((R)-2,6-dioxopiperidin-3-yl)-3,5-difluorophenyl)azetidin-3-yl)-2-(methoxymethyl)piperazin-1-yl)cyclohexyl)-6-(2-hydroxypropan-2-yl)-2H-indazol-5-yl)pyrrolo[1,2-b]pyridazine-7-carboxamide], the results for the DC50 on IRAK4 [1] and on IRAK4 [2] (setting [4]) were 4.2 nM and 0.9 nM, respectively. The Dmax on IRAK4 [1] came to 95%; at IRAK4 [2] (setting [3]), 90%.

Take `CC(C)(O)c1cc2nn([C@H]3CC[C@H](N4CCN(C[C@H]5CCN(c6ccc7c(c6)C(=O)N(C6CCC(=O)NC6=O)C7=O)C5)CC4)CC3)cc2cc1NC(=O)c1ccc2cc(C#N)cnn12` (stereo partly drawn) [Example 432, 3-cyano-N-(2-((1R,4r)-4-(4-(((3R)-1-(2-(2,6-dioxopiperidin-3-yl)-1,3-dioxoisoindolin-5-yl)pyrrolidin-3-yl)methyl)piperazin-1-yl)cyclohexyl)-6-(2-hydroxypropan-2-yl)-2H-indazol-5-yl)pyrrolo[1,2-b]pyridazine-7-carboxamide]: the DC50 on IRAK4 [1] was 14 nM; at IRAK4 [2] (setting [4]) it was 1.9 nM. The Dmax on IRAK4 [1] came to 92%; at IRAK4 [2] (setting [3]) it was 95%.

Turning to `CCc1cc(N2CC(C(=O)N3CCN([C@H]4CC[C@H](n5cc6cc(NC(=O)c7ccc8cc(C#N)cnn78)c(C(C)(C)O)cc6n5)CC4)CC3)C2)ccc1N1CCC(=O)NC1=O` [Example 257, 3-cyano-N-(2-((1r,4r)-4-(4-(1-(4-(2,4-dioxotetrahydropyrimidin-1(2H)-yl)-3-ethylphenyl)azetidine-3-carbonyl)piperazin-1-yl)cyclohexyl)-6-(2-hydroxypropan-2-yl)-2H-indazol-5-yl)pyrrolo[1,2-b]pyridazine-7-carboxamide], the DC50 at IRAK4 [1] came out at 28 nM; on IRAK4 [2] (setting [4]) it was 1.7 nM. Also, the Dmax on IRAK4 [1] and on IRAK4 [2] (setting [3]) was 97% throughout.

On to `COc1cc2nn([C@H]3CC[C@H](N4CCN(CCc5cc(F)c([C@H]6CCC(=O)NC6=O)c(F)c5)CC4)CC3)cc2cc1NC(=O)c1ccc2cc(C#N)cnn12` [Example 337, 3-cyano-N-(2-((1R,4r)-4-(4-(4-((R)-2,6-dioxopiperidin-3-yl)-3,5-difluorophenethyl)piperazin-1-yl)cyclohexyl)-6-methoxy-2H-indazol-5-yl)pyrrolo[1,2-b]pyridazine-7-carboxamide], for which the DC50 at IRAK4 [1] was determined as 10 nM; on IRAK4 [2] (setting [4]), 2.1 nM. For the same molecule, the figures for the Dmax at IRAK4 [1] and on IRAK4 [2] (setting [3]) were 89% and 96%, respectively.

For the molecule `CC(C)(O)c1cc2nn([C@H]3CC[C@H](N4CCN(CCc5cc(F)c([C@H]6CCC(=O)NC6=O)c(F)c5)C[C@@H]4CC#N)CC3)cc2cc1NC(=O)c1ccc2cc(C#N)cnn12` [Example 389, 3-cyano-N-(2-((1S,4r)-4-((S)-2-(cyanomethyl)-4-(4-((R)-2,6-dioxopiperidin-3-yl)-3,5-difluorophenethyl)piperazin-1-yl)cyclohexyl)-6-(2-hydroxypropan-2-yl)-2H-indazol-5-yl)pyrrolo[1,2-b]pyridazine-7-carboxamide], the DC50 was 13 nM on IRAK4 [1] and 1 nM on IRAK4 [2] (setting [4]). Further, the values for the Dmax on IRAK4 [1] and at IRAK4 [2] (setting [3]) were 100% and 94%, respectively.

In the case of `COC[C@H]1CN([C@H]2CC[C@H](n3cc4cc(NC(=O)c5ccc6cc(C#N)cnn56)c(C(C)(C)O)cc4n3)CC2)CCN1CC1CCN(c2ccc3c(c2)CN(C2CCC(=O)NC2=O)C3=O)CC1` (stereo partly drawn) [Example 402, 3-cyano-N-(2-((1R,4r)-4-((3R)-4-((1-(2-(2,6-dioxopiperidin-3-yl)-1-oxoisoindolin-5-yl)piperidin-4-yl)methyl)-3-(methoxymethyl)piperazin-1-yl)cyclohexyl)-6-(2-hydroxypropan-2-yl)-2H-indazol-5-yl)pyrrolo[1,2-b]pyridazine-7-carboxamide], the DC50 on IRAK4 [1] was found to be 5.5 nM; on IRAK4 [2] (setting [4]), 0.9 nM. Further, the Dmax on IRAK4 [1] was found to be 87%; on IRAK4 [2] (setting [3]), 95%.

For `COC[C@H]1CN(C2CN(c3cc(F)c([C@H]4CCC(=O)NC4=O)c(F)c3)C2)CCN1[C@H]1CC[C@H](n2cc3cc(NC(=O)c4ccc5cc(C#N)cnn45)c(C(C)(C)O)cc3n2)CC1` [Example 323, 3-cyano-N-(2-((1R,4r)-4-((R)-4-(1-(4-((R)-2,6-dioxopiperidin-3-yl)-3,5-difluorophenyl)azetidin-3-yl)-2-(methoxymethyl)piperazin-1-yl)cyclohexyl)-6-(2-hydroxypropan-2-yl)-2H-indazol-5-yl)pyrrolo[1,2-b]pyridazine-7-carboxamide], the values for the DC50 on IRAK4 [1] and on IRAK4 [2] (setting [4]) were 14 nM and 2.1 nM, respectively. Besides, the Dmax came out at 98% on IRAK4 [1] and 94% on IRAK4 [2] (setting [3]).

On to `CC(C)(O)c1cc2nn([C@H]3CC[C@H](N4CCN(C(=O)C5CN(c6cc(F)c([C@H]7CCC(=O)NC7=O)c(F)c6)C5)CC4)CC3)cc2cc1NC(=O)c1ccc2cc(C(F)(F)F)cnn12` [Example 207], for which the values for the DC50 at IRAK4 [1] and on IRAK4 [2] (setting [4]) were 191 nM and 1.9 nM, respectively. In addition, the Dmax on IRAK4 [1] and at IRAK4 [2] (setting [3]) was 97% each time.

Regarding `CC(C)(O)c1cc2nn(C3CCN(C4CCN(C(=O)[C@@H]5CCN(c6cc(F)c([C@H]7CCC(=O)NC7=O)c(F)c6)C5)CC4)CC3)cc2cc1NC(=O)c1ccc2cc(C#N)cnn12` [Example 347, 3-cyano-N-(2-(1′-((R)-1-(4-((R)-2,6-dioxopiperidin-3-yl)-3,5-difluorophenyl)pyrrolidine-3-carbonyl)-[1,4′-bipiperidin]-4-yl)-6-(2-hydroxypropan-2-yl)-2H-indazol-5-yl)pyrrolo[1,2-b]pyridazine-7-carboxamide], the 50% degradation concentration (DC50) on IRAK4 [1] came to 25 nM; on IRAK4 [2] (5 h treatment, read-out: IRAK4 in Karpas-299 (5 h) DC50), 2.2 nM; at IRAK4 [2] (setting [4]), 1.3 nM. Also, the Dmax at IRAK4 [1] is 103%; at IRAK4 [2] (5 h treatment, read-out: IRAK4 in Karpas-299 (5 h) Dmax (%)), 93%; at IRAK4 [2] (setting [3]) it was 96%.

`CC(C)(O)c1cc2nn(C3CCN([C@@H]4CCN(C5CN(c6cc(F)c([C@H]7CCC(=O)NC7=O)c(F)c6)C5)CC4(F)F)CC3)cc2cc1NC(=O)c1ccc2cc(C#N)cnn12` [Example 342, 3-cyano-N-(2-((R)-1′-(1-(4-((R)-2,6-dioxopiperidin-3-yl)-3,5-difluorophenyl)azetidin-3-yl)-3′,3′-difluoro-[1,4′-bipiperidin]-4-yl)-6-(2-hydroxypropan-2-yl)-2H-indazol-5-yl)pyrrolo[1,2-b]pyridazine-7-carboxamide]: the half-maximal degradation concentration (DC50) at IRAK4 [1] is 14 nM; at IRAK4 [2] (setting [4]), 1.5 nM. For the same molecule, the figures for the Dmax on IRAK4 [1] and at IRAK4 [2] (setting [3]) were 98% and 102%, respectively.

With `COc1cc2nn([C@H]3CC[C@H](N4CCN(C(=O)C5CN(c6cc(F)c([C@H]7CCC(=O)NC7=O)c(F)c6)C5)CC4)CC3)cc2cc1C(=O)Nc1cnc2cccnn12` [Example 343, 2-((1r,4r)-4-(4-(1-(4-((R)-2,6-dioxopiperidin-3-yl)-3,5-difluorophenyl)azetidine-3-carbonyl)piperazin-1-yl)cyclohexyl)-N-(imidazo[1,2-b]pyridazin-3-yl)-6-methoxy-2H-indazole-5-carboxamide], the DC50 on IRAK4 [1] was determined as 2.3 nM; on IRAK4 [2] (setting [4]), 0.1 nM. The Dmax at IRAK4 [1] is 102%; at IRAK4 [2] (setting [3]), 97%.
